Source: US20210077478A1, “METHOD OF COUNTERING RESPIRATORY DEPRESSION VIA ACTIVATION OF NEURONAL HETEROMERIC NICOTINIC ACETYLCHOLINE RECEPTORS” (THE GOVERNORS OF THE UNIVERSITY OF ALBERTA, priority 2017, published 2021)
“Also recorded” adds a separate entry of the source. Where two headings read alike, the source gives them in different places.

Tests used:
[1] = system: brainstem-spinal cord in vitro preparations; assay: Brainstem-spinal cord in vitro preparation, respiratory rhythm (C4 / XII nerve recordings); design: species or system rat; conditions: for fR in the presence of the antagonist: antagonist 400 nM
Experimental: Brainstem-spinal cord and medullary slice preparations were obtained from neonatal Sprague-Dawley rats. The rats were anesthetized with metofane, decerebrated, and the brainstem-spinal cord (BSSC) and medullary slice dissected (Smith et al., 1990; 1991). BSSC was continuously perfused with modified Krebs solution. A single rhythmic medullary slice was cut (500-650 μm thick) and continuously perfused with bathing solution. Inspiratory activity was recorded from the fourth ventral cervical nerve roots of BSSC or XII nerve rootlets of the medullary slice using an extracellular glass electrode.
Neonatal (postnatal day 1-3) rats were anesthetized with metofane, decerebrated and the brainstem-spinal cord dissected as previously reported. The neuraxis was continuously perfused at 27°±1° C. (5 ml/min; chamber volume, 3 ml) with modified Kreb's solution that contained 128 mM NaCl, 3.0 mM KCl, 1.5 mM CaCl2, 1.0 mM MgCl2, 23.5 mM NaHCO3, 0.5 mM NaH2PO4, and 30 mM d-glucose equilibrated with 95% O2-5% CO2 (pH 7.4).
A single transverse slice containing the preBötC and more caudal reticular formation regions was then cut (700 μm thick) from brainstem-spinal cord preparations perfused with a bathing solution identical to that used for B SSC preparation with the exception that the KCl concentration was increased to 9 mM to facilitate long-term generation of stable rhythm. Recordings from the fourth ventral cervical nerve roots of brainstem-spinal cord or hypoglossal nerve roots of medullary slice preparations were amplified, rectified, low-pass filtered, and recorded to a computer, using an analog-digital converter (Axon Instruments Digidata; Molecular Devices, Sunnyvale, Calif.) and data acquisition software (Axon Instruments AxoScope).

[2] = system: medullary slice (preBötC and XII motoneurons); design: species or system rat
[3] = system: adult rats; assay: Baseline ventilation after drug alone, plethysmography in adult rats; format: in vivo, rat; conditions: for baseline minute ventilation: drug alone: A85380 0.03, Rivanicline 3, NS9283 10, PNU282987 1-15 mg/kg
[4] = system: newborn rats; assay: Propofol-induced respiratory depression in newborn rats (P3); format: in vivo, rat
Experimental: In a further experiment, A85380 (0.03 mg/kg, ip) and propofol (30 mg/kg, ip) were co-administered in newborn rats in vivo (P3). In the control group, vehicle (saline) was administered with 30 mg/kg propofol (FIG. 6A). […] Without being bound by any theory, targeting of α4β2 nAChRs may be a potent means of alleviating the effects of drugs (e.g. propofol) causing respiratory depression via GABAA receptor mechanisms in vivo.

[5] = system: adult rats; conditions: rat, in vivo, sc, 0.06 mg/kg
[6] = system: adult rats; assay: Formalin test (licking and lifting) in adult rats; format: in vivo, rat
[7] = system: P0 rat brainstem-spinal cord preparation with C2 hemisection; assay: C2 hemisection spinal cord injury model, brainstem-spinal cord preparation, C4 recordings; conditions: A85380 25 nM bath
From the text: One of the primary causes of morbidity and mortality associated with spinal cord injury is loss of normal functioning of the respiratory musculature. This is caused by a reduced synaptic drive from respiratory rhythm generating centers onto respiratory spinal motoneurons. An in vitro newborn brainstem spinal cord rat model of spinal cord injury (Zimmer and Goshgarian, 2005) was used to test the efficacy of targeting α4β2 nAChRs to alleviate weak respiratory drive. […] Rectified and integrated signals were made from both C4 recordings from a P0 rat brainstem-spinal cord preparation showing the respiratory activity both contralateral (A: top traces) and ipsilateral (B: bottom traces) to one side C2 hemisection. There was a marked reduction in neural activity after the hemisection in ipsilateral nerve, but respiratory-like activity was still observed occasionally and was correlated with the respiratory activity on the contralateral nerve.

[8] = system: rat pups; conditions: in vivo
[9] = oral administration, compared with sazetidine-A (Kong et al. 2015); cited from earlier work
[10] = molecular target: (α4)2(β2)3 receptors (Homo sapiens, UniProt P17787+P43681); conditions: Zwart et al., 2008; Carbone et al., 2009; cited from earlier work
[11] = molecular target: (α4)3(β2)2 receptors (Homo sapiens, UniProt P17787+P43681); conditions: Zwart et al., 2008; Carbone et al., 2009; cited from earlier work
[12] = system: adult rats; conditions: rat, in vivo, iv
[13] = system: newborn rats; assay: Fentanyl-induced respiratory depression in rat pups (postnatal day 3-4), plethysmography; format: in vivo

(α4)3(β2)2 receptors, sequence (P43681 29-627 limits assumed): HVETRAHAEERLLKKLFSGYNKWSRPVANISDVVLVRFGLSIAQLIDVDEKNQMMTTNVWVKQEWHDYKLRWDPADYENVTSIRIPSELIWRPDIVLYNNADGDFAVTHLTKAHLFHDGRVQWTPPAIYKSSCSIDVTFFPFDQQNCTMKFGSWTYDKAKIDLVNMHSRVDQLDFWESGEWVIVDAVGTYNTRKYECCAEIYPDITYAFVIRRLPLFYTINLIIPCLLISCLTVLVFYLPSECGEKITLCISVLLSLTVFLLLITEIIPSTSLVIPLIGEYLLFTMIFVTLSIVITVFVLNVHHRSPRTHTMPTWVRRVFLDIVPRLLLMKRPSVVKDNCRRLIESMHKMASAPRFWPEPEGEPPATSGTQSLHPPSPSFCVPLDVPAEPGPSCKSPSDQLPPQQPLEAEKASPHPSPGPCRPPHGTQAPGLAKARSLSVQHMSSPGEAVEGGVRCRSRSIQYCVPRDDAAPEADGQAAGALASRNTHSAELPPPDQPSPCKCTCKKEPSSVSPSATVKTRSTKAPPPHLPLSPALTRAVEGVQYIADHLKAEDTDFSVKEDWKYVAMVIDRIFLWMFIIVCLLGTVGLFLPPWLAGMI
(α4)3(β2)2 receptors, sequence (P17787 26-502): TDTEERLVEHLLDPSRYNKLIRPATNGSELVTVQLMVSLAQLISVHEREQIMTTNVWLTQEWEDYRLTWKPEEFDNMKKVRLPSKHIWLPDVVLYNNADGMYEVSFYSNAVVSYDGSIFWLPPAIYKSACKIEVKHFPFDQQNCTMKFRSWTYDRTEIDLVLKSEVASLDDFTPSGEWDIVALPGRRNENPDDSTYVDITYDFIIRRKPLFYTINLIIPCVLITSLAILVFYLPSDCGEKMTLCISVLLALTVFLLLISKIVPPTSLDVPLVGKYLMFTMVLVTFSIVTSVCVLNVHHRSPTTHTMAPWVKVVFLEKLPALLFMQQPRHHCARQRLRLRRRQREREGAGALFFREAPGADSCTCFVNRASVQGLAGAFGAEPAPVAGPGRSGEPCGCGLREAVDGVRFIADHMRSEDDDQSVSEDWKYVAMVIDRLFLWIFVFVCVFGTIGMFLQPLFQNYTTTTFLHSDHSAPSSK
(α4)2(β2)3 receptors, sequence (P43681 29-627 limits assumed): as the sequence (P43681 29-627 limits assumed) above
(α4)2(β2)3 receptors, sequence (P17787 26-502): as the sequence (P17787 26-502) above

Compound: C[C@@H](NC(=O)[C@@H](N)Cc1ccc(O)cc1)C(=O)NCC(=O)N(C)[C@@H](Cc1ccccc1)C(=O)NCCO [DAMGO, [D-Ala2, NMe-Phe4, Gly-ol5]-enkephalin]
- respiratory depression by DAMGO (fR and burst area) [1]: suppressed fR and burst area
- effect of DAMGO on fR [2]: caused a suppression of fR
- effect of DAMGO on respiratory frequency and amplitude [2]: induced suppression of respiratory frequency and amplitude

Compound: c1cncc(OC[C@@H]2CCN2)c1 [A85380, 3-(2(s)-azetidinylmethoxy) pyridine]
- baseline minute ventilation [3]: 97.8±3.1 % of control
- baseline fR [1]: increased baseline fR
- baseline respiratory amplitude [1]: without marked effects
- baseline respiratory frequency [1]: increased baseline respiratory frequency
- concentrations at which baseline fR is increased [1]: above 5 nM
- ethanol and pentobarbital-induced respiratory depression [1]: alleviated
- reversal of DAMGO-induced respiratory depression (decrease in fR and burst area) [1]: clear reversal
- reversal of DAMGO-induced respiratory depression (frequency and amplitude) [1]: clear reversal
- weak respiratory rhythm and XII motor output [1]: increased respiratory frequency, amplitude and bursting duration
- DAMGO-induced suppression of fR [2]: alleviated
- DAMGO-induced suppression of respiratory frequency and amplitude [2]: alleviated
- baseline respiratory burst area [2]: decreased baseline respiratory burst area
- baseline respiratory frequency [2]: increased respiratory frequency; also recorded: increased fR
- loss of respiratory drive and motor output in low potassium [2]: potently reversed the loss of respiratory drive and motor output
- respiratory amplitude [2]: decreased the respiratory amplitude
- propofol-induced respiratory depression ([4]; A85380 0.03 mg/kg ip co-administered with propofol 30 mg/kg ip): dramatically prevented
- paw withdrawal latency to thermal stimuli, baseline [5]: marked increase in paw withdrawal latency
- nocifensive response 20-40 minutes post formalin, baseline ([6]; rat, in vivo, sc, 0.06 mg/kg): decreased nocifensive response
- ipsilateral respiratory amplitude after C2 hemisection [7]: partially increased
- respiratory frequency after C2 hemisection [7]: increased the respiratory frequency
- significant alteration of baseline VE [8]: Neither

Compound: dihydro-beta-erythroidine [DHβE]
- fR in the presence of the antagonist [1]: fR was slower
- reversal of A85380 (25 nM) effects by antagonist ([2]; DHβE 200 nM subsequent bath application): reversed
- significant alteration of baseline VE [8]: Neither

Compound: N#Cc1cccc(-c2nc(-c3cccnc3)no2)c1 [NS9283, 3-[3-(3-Pyridinyl)-1,2,4-oxadiazol-5yl]benzonitrile]
- baseline minute ventilation [3]: 103.3±4.2 % of control
- baseline respiratory amplitude ([1]; C4 discharge, A85380 25 nM, Rivanicline 0.5 μM, NS9283 15 μM): without marked effects
- baseline respiratory frequency ([1]; C4 discharge, bath A85380 25 nM, Rivanicline 0.5 μM, NS9283 15 μM, PNU282987 up to 20 μM (Example 3)): increased baseline respiratory frequency
- reversal of DAMGO-induced respiratory depression (frequency and amplitude) ([1]; bath after DAMGO: A85380 25 nM, Rivanicline 0.5 μM, NS9283 15 μM, PNU282987 1-20 μM (Example 3)): clear reversal

Compound: C(#Cc1cncc(OC[C@@H]2CCN2)c1)c1ccccc1 [VMY-2-95, 3-[(2S)-2-Azetidinylmethoxy]-5-(2-phenylethynyl)-pyridine]
- significant alteration of baseline VE [8]: Neither
- penetration of the blood-brain barrier [9]: better penetration of the blood-brain barrier

Compound: O=C(N[C@H]1CN2CCC1CC2)c1ccc(Cl)cc1 [PNU282987]
- baseline minute ventilation [3]: 102.9±4.1 % of control
- baseline fR [1]: very modest increase in fR
- baseline respiratory frequency [1]: very modest increase in respiratory frequency
- baseline respiratory frequency [2]: had no effect
- significant alteration of baseline VE [8]: Neither

Compound: OCCCCC#Cc1cncc(OC[C@@H]2CCN2)c1 [sazetidine-A, 6-[5-[(2S)-2-Azetidinylmethoxy]-3-pyridinyl]-5-hexyn-1-ol]
- significant alteration of baseline VE [8]: Neither
- agonist activity [10]: full agonist activity
- agonist activity [11]: nearly no agonist activity

Compound: CN1[C@@H](CC(=O)c2ccccc2)CCC[C@H]1C[C@H](O)c1ccccc1 [lobeline, 2-((2R,6S)-6-((S)-2-Hydroxy-2-phenylethyl)-1-methylpiperidin-2-yl)-1-phenylethanone]
- VE ([3]; lobeline 3 mg/kg iv alone): 116.2±8.7 % of control
- VE ([3]; lobeline 6 mg/kg ip alone): did not affect VE
- loss of righting reflex [12]: 22.4 ± 7.3 min
- nocifensive response, phase II ([6]; lobeline 3 mg/kg iv alone): tended to decrease the nocifensive response in the phase II, but the difference is not significant
- nocifensive response, phase I ([6]; lobeline 3 mg/kg iv alone, formalin 30 min post lobeline): decreased nocifensive response

Compound: CN1CCCC1CCc1ccc(S)cc1 (racemic) [SIB 1553A, (±)-4-[2-((N-methyl)-2-pyrrolidinyl)ethyl]thiophenol]
- SIB 1553A effects with DHβE co-administered ([13]; DHβE 6 mg/kg co-administration with fentanyl, SIB 1553A 40 mg/kg): only partially blocked
- fentanyl-induced respiratory depression with mecamylamine co-administered ([13]; fentanyl 35 μg/kg + mecamylamine 6 mg/kg, SIB 1553A 40 mg/kg): had no effects
- fentanyl-induced decrease in tidal volume (VT) ([13]; fentanyl 35 μg/kg, SIB 1553A 40 mg/kg sc): without marked effects
- fentanyl-induced decrease in respiratory rate (fR) ([13]; fentanyl 35 μg/kg, SIB 1553A 40 mg/kg sc 7 min later): partially reversed

Compound: CN1CCCC1c1cccnc1 (centres unmarked) [nicotine]
- baseline fR [1]: caused an increase of baseline fR
- concentrations at which baseline fR is increased [1]: above 200 nM
- reversal of DAMGO-induced respiratory depression (decrease in fR and burst area) [1]: clear reversal
- significant alteration of baseline VE [8]: Neither

Compound: CNCC/C=C/c1cccnc1 [Rivanicline, (E)-N-Methyl-4-(3-pyridinyl)-3-butene-1-amine]
- baseline minute ventilation [3]: 98.4±3.6 % of control
- baseline respiratory amplitude [1]: without marked effects
- baseline respiratory frequency [1]: increased baseline respiratory frequency
- reversal of DAMGO-induced respiratory depression (frequency and amplitude) [1]: clear reversal

Compound: CC(C)c1cccc(C(C)C)c1O [propofol]
- duration of propofol respiratory depression ([4]; propofol 30 mg/kg ip): over 30 minutes
- onset of propofol respiratory depression ([4]; propofol 30 mg/kg ip): ≤ 5 min
- respiratory depression by propofol ([4]; propofol 30 mg/kg ip with saline): marked depression of respiratory frequency and amplitude

Compound: CCN1C[C@]2(COC(=O)c3ccccc3N3C(=O)C[C@H](C)C3=O)CC[C@H](OC)[C@@]34[C@@H]5C[C@H]6[C@H](OC)[C@@H]5[C@](O)(C[C@@H]6OC)[C@](O)([C@@H](OC)[C@H]23)[C@@H]14 [MLA]
- fR in the presence of the antagonist [1]: fR was slower
